Key:
[1] = tested on: Pyricularia oryzae (rice blast); test: whole plant or invertebrate; format: in vivo; conditions: foliar, read-out: RICE BLAST control rating
[2] = tested on: Botrytis cinerea (gray mold); test: Plant pathology screen (Test 1), gray mold on grape berries; conditions: read-out: GRAY MOLD control rating
[3] = tested on: Southern corn rootworm (Diabrotica undecimpuctata howardi Barber); test: Mite/insect screen, corn rootworm; format: in vivo; conditions: Diabrotica, soil, read-out: CRW results (percent mortality); for mortality at 12 ppm: CRW rate 12.00 ppm; for mortality at 24 ppm: CRW rate 24.00 ppm
Outline: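 Five 2-3 instar larvae per cup were placed on sandy soil (15 g, with presoaked corn seed) treated 6–12 h earlier with 1 mL test solution, an emulsified acetone/alcohol formulation diluted in water. Cups kept at 23° C; mortality and phytotoxicity assessed as percent after standard exposures.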

[4] = tested on: Pseudoperonospora cubensis (downy mildew); test: Plant pathology screen (Test 1), downy mildew on squash; conditions: foliar, read-out: DOWN MDEW control rating
[5] = tested on: Twospotted spider mites (Tetranychus urticae Koch); test: Mite/insect screen, twospotted spider mites; format: in vivo; conditions: Tetranychus urticae, sprayed leaves, read-out: SM results (percent mortality); for mortality at 200 ppm: rate 200 ppm; for mortality at 400 ppm: rate 400 ppm
Outline: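 Percent mortality, along with phytotoxicity, was read after standard exposure periods. Beforehand, mites established on both surfaces of squash cotyledons received a runoff spray (10 psi) of water-diluted compound formulated in acetone/alcohol with sulfonate/nonionic emulsifiers.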

[6] = tested on: melon aphids (Aphis gossvpii Glover); test: Mite/insect screen, melon aphids; format: in vivo; conditions: Aphis, sprayed leaves, read-out: MA results (percent mortality); for mortality at 200 ppm: rate 200 ppm; for mortality at 400 ppm: rate 400 ppm
Outline: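 Percent mortality of melon aphids was assessed after standard exposure periods. Infested squash cotyledons had been sprayed on both leaf surfaces until runoff at 10 psi with water-diluted test solutions. Compounds were formulated in acetone/alcohol (50:50) containing emulsifiers.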

[7] = tested on: southern armyworm (Spodopetra eridania Cramer); test: Mite/insect screen, Southern armyworm; format: in vivo; conditions: Spodoptera eridania, sprayed leaves, read-out: SAW results (percent mortality); for mortality at 200 ppm: rate 200 ppm; for mortality at 400 ppm: rate 400 ppm
Outline: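 Southern armyworm larvae placed in Petri dishes with two excised squash leaves that had been sprayed to runoff (10 psi) with emulsified compound and air-dried for 1 h. Mortality in percent recorded after a standard exposure period; formulation acetone/alcohol plus Toximul R and S, water-diluted.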

[8] = tested on: Puccinia recondita tritici (leaf rust); test: Plant pathology screen (Test 1), leaf rust on wheat; conditions: in Triticum aestivum, foliar, read-out: LEAF RUST control rating
Procedure: This screen was used to evaluate the efficacy of the present compounds against a variety of different organisms that cause plant diseases.
The test compounds were formulated for application by dissolving 50 mg of the compound into 1.25 ml of solvent. The solvent was prepared by mixing 50 ml of "Tween 20" (polyoxyethylene (20) sorbitan monolaurate emulsifier) with 475 ml of acetone and 475 ml of ethanol. The solvent/compound solution was diluted to 125 ml with deionized water. The resulting formulation contains 400 ppm test chemical. Lower concentrations were obtained by serial dilution with the solvent-surfactant mixture.
The formulated test compounds were applied by foliar spray.
The formulated technical compounds were sprayed on all foliar surfaces of the host plants (or cut berry) to past run-off. Single pots of each host plant were placed on raised, revolving pedestals in a fume hood. Test solutions were sprayed on all foliar surfaces. All treatments were allowed to dry and the plants were inoculated with the appropriate pathogens within 2-4 hours.
The effectiveness of test compounds in controlling disease was rated using the following scale.

[9] = tested on: Erysiphe graminis tritici (powdery mildew); test: Plant pathology screen (Test 1), powdery mildew on wheat; conditions: Blumeria graminis, in Triticum aestivum, foliar, read-out: POWD MDEW control rating

SMILES | pest or weed control at 400 µg/mL [1] [%] | pest or weed control at 400 µg/mL [2] [%] | mortality at 12 ppm [3] [%] | mortality at 24 ppm [3] [%] | pest or weed control at 400 µg/mL [4] [%] | mortality at 200 ppm [5] [%] | mortality at 400 ppm [5] [%] | mortality at 200 ppm [6] [%] | mortality at 400 ppm [6] [%] | mortality at 200 ppm [7] [%] | mortality at 400 ppm [7] [%] | pest or weed control at 400 µg/mL [8] [%] | pest or weed control at 400 µg/mL [9] [%]
COc1ccc(Oc2ncnc3oc(C)c(C)c23)cc1 [Example 65, 5,6-dimethyl-4-(4-methoxyphenoxy)furo[2,3-d]pyrimidine] | 0 to 19 | 0 to 19 | 0 | 0 | 0 to 19 | 0 | 0 | 0 | 0 | 0 | 0 | 0 to 19 | 20 to 89
CCOc1ccc(CCNc2ncnc3oc(C)cc23)cc1 [Example 9, 6-methyl-N-[2-(4-ethoxyphenyl)ethyl]furo(2,3-d]pyrimidin-4-amine] | 0 to 19 | 0 to 19 | 0 | 0 | 20 to 89 | 0 | 0 | 0 | 0 | 0 | 0 | 90 to 100 | 0 to 19
Cc1oc2ncnc(OCCc3ccc(C(C)(C)C)cc3)c2c1C [Example 50, 4-[2-[4-(t-butyl)phenyl]ethoxy]-5,6-dimethylfuro[2,3-d]pyrimidine] | 20 to 89 | 0 to 19 | 0 | 0 | 20 to 89 | 0 | 100 | 0 | 100 | 0 | 0 | 20 to 89 | 20 to 89
COc1ccc(CCOc2ncnc3oc(C)cc23)cc1 [Example 40, 6-methyl-4-[2-(4-methoxyphenyl)ethoxy]furo[2,3-d]pyrimidine] | 0 to 19 | 0 to 19 | 0 | 0 | 90 to 100 | 0 | 20 | 0 | 80 | 0 | 0 | 90 to 100 | 20 to 89
Cc1oc2ncnc(OCCc3ccc(Cl)cc3)c2c1C [Example 53, 4-[2-(4-chlorophenyl)ethoxy]-5,6-dimethylfuro[2,3-d]pyrimidine] | 20 to 89 | 0 to 19 | 0 | 0 | 0 to 19 | 0 | 30 | 0 | 60 | 0 | 0 | 90 to 100 | 20 to 89
Cc1oc2ncnc(OCCc3ccccc3C(F)(F)F)c2c1C [Example 76, 5,6-dimethyl-4-[2-[2(trifluoromethyl)phenyl]ethoxy]furo[2,3-d]pyrimidine] | 0 to 19 | 0 to 19 | – | 60 | 20 to 89 | – | 0 | – | 0 | – | 0 | 0 to 19 | 90 to 100
Cc1cc2c(NCCc3cccc(C(F)(F)F)c3)ncnc2o1 [Example 8, 6-methyl-N-[2-[3-(trifluoromethyl)phenyl]ethyl]furo[2,3-d]pyrimidin-4-amine] | 20 to 89 | 0 to 19 | 0 | 0 | 90 to 100 | 0 | 0 | 0 | 0 | 0 | 0 | 90 to 100 | 20 to 89

— US5486516A, “Furopyrimidine derivatives” (DowElanco, priority 1993, dated 1996)
